Read-outs that look alike come from different tables or passages of the source.
What was measured:
[1] = tested on: Ozark conventional soybean; conditions: for Soybean Injury (%) 10 DAT / Soybean Injury (%) 35 DAT: fungicide-only seed
Procedure: A field experiment was conducted in the summer of 2014 near Newport, Ark. to evaluate the effect of a soybean insecticide seed treatment, Cruiser Maxx, on herbicide injury to convention soybean. The conventional soybean variety Ozark was planted on 7-17-14 in plots measuring 7.5×20 feet in size. In each plot, half the drill rows were treated with Cruiser Maxx at 7 oz/cwt, and the other half were treated with only the fungicide portion of that treatment. Seeding rate was 125,000 seeds per acre. Seed were planted to a depth of 0.5 inches. Soil temperature at the time of planting and application of the PRE treatments was 62 degrees F.
Post emerge treatments included Roundup PowerMax (2 and 4 oz/A), Liberty (2 and 4 oz/A), dicamba (0.25 and 0.5 oz/A), 2,4-D (0.75 and 1.5 oz/A) and Permit at 0.5 and 1.0 oz/A applied at the third trifoliate stage. Herbicides were applied with a 4 nozzle boom calibrated to deliver 15 GPA using CO2 as a propellant.
Plots were visually rated for herbicide injury at 10 days after emergence and at 35 days after application of the POST treatments. The rating scale was 0 to 100 where 0=no injury and 100=complete death or desiccation of the plant. Means were separated using Fisher's protected LSD (0.05).

[2] = tested on: cotton; conditions: insecticide applied in-furrow; York et al. (1991); cited from earlier work
[3] = tested on: conventional rice (Roy J); type: in vivo
Procedure: This experiment was conducted at a farm located just north of Lonoke, Ark. in the summers of 2013 and 2014. The soil texture is a silt loam with a pH of 6.3. Conventional rice (Roy J) was planted on Apr. 30, 2013 and May 20, 2014 with a Hege cone drill calibrated to deliver a seeding rate of 90 pounds (lbs)/Acre on 7.5-inch rows. Plot size was 5×25 feet. The study was conducted with a randomized complete block design having 4 replications.
Treatments consisted of seed treatment and herbicide combinations. […] The second seed treatment was considered the “nontreated seed” which actually received equivalent amounts of azoxystrobin, mefenoxam and fludioxonil as the treated seed but without the insecticide thiamethoxam.
The herbicide treatments were applied at the 2-4 If growth stage of rice with a CO2 backpack sprayer calibrated to deliver 10 gallons of spray solution per acre. Herbicide treatments included Roundup PowerMax (5.5 lb ai/gallon formulation) applied at 0, 1, 2, and 4.0 oz product/A and Newpath 2AS (2 lb ai/gallon formulation) applied at 0, 0.25, 0.5 and 1.0 oz product/A. The plot area was maintained weed free with conventional rice herbicides and the rice was grown according to University of Arkansas recommendations for soil fertility.
Data collected included: percent visual injury at 7, 21, and 42 days after treatment (DAT) on a scale of 0 to 100 with 0 being no injury and 100 being complete crop death; canopy heights at 68 DAT using a yard stick and 1 meter square piece of cardboard, percent rice heading at 107 DAT, percent moisture, and grain yield at harvest. Data were analyzed and LSD's generated at the p=0.05 level of significance using ARM 9.1.4.

[4] = POST at third trifoliate, averaged across two rates (Roundup PowerMax 2 and 4, dicamba 0.25 and 0.5, 2,4-D 0.75 and 1.5, Permit 0.5 and 1.0 oz/A), Treated soybean (Cruiser Maxx 7 oz/cwt)
[5] = POST at third trifoliate, averaged across two rates (Roundup PowerMax 2 and 4, dicamba 0.25 and 0.5, 2,4-D 0.75 and 1.5, Permit 0.5 and 1.0 oz/A)
[6] = PRE, (T) = Treated soybean (Cruiser Maxx 7 oz/cwt), Metribuzin 0.671 lb/A, Dual Magnum 2.0 pts/A, Zidua 3.5 oz/A, Valor 2.0 oz/A, mixes at same rates
[7] = PRE, Metribuzin 0.671 lb/A, Dual Magnum 2.0 pts/A, Zidua 3.5 oz/A, Valor 2.0 oz/A, mixes at same rates

Row | SMILES | Soybean Injury (%) 10 DAT (T) [1, 4] [%] | Soybean Injury (%) 35 DAT (T) [1, 4] [%] | Soybean Injury (%) 10 DAT [1, 5] [%] | Soybean Injury (%) 35 DAT [1, 5] [%] | clomazone injury to cotton [2] | other results
1 | O=C(O)COc1ccc(Cl)cc1Cl [2,4-D] | 15 | 5 | 15 | 5 | – | –
2 | COc1c(Cl)ccc(Cl)c1C(=O)O [Dicamba, dicamba] | 60 | 30 | 60 | 30 | – | –
3 | CSc1nnc(C(C)(C)C)c(=O)n1N [Metribuzin, metribuzin] | – | – | – | – | – | Soybean Injury (%) 10 DAT (T) [1, 6]: 0%; Soybean Injury (%) 35 DAT (T) [1, 6]: 0%; Soybean Injury (%) 10 DAT [1, 7]: 0%; Soybean Injury (%) 35 DAT [1, 7]: 0%
4 | CCOP(=S)(OCC)SCCSCC [disulfoton] | – | – | – | – | greatly reduced | –
5 | CCOP(=S)(OCC)SCSCC [phorate] | – | – | – | – | greatly reduced | –
6 | CN1COCN(Cc2cnc(Cl)s2)/C1=N\[N+](=O)[O-] [thiamethoxam] | – | – | – | – | – | heading ([3]; 107 DAT, all plots that received the insecticide in the seed treatment): 95-100%; yield higher for treated seed plots versus untreated or fungicide only plots ([3]; 2013, Newpath at either 0.25 or 0.5 oz/A): 100 bu/A; yield improved by addition of a seed treatment that included the insecticide ([3]; 2013, Roundup 4.0 oz/A): over 60 bushels

— US11219216B2, “Method of improving tolerance of plants to herbicides using seed insecticide treatments” (priority 2015, dated 2022)
